Data from patent publication US9040544B2, “2,5-substituted oxazolopyrimidine derivatives” (Sanofi, priority 2010, dated 2015).

These compounds were tested against T1, human Edg-1 receptor (Homo sapiens, UniProt P21453) (assay: GTP-γ-S assay using human Edg-1 receptors (scintillation proximity assay, CHO Flp-In cell membrane preparation)). Details: test compound at 10 μM; 10 μM S1P regarded as 100% activation; background-corrected; triplicate; read-out: % Activation (Edg-1 receptor activation in percent of the activation by 10 μM S1P).
T1 construct: expressed in transfected cells; host or cells: Flp-In-CHO cells, stably transfected; membrane preparation
Assay type: biochemical
Source text: A) GTP-γ-S assay using human Edg-1 receptors
In order to determine the Edg-1 receptor activation by the compounds of the invention, a GTP-γ-S (guanosine 5′-[thio]triphosphate) assay for G-protein coupled receptor binding based on the scintillation proximity assay principle was used, employing a cell membrane preparation from a CHO Flp-In cell line which constitutively overexpresses the human Edg-1 receptor.
(a) Cell line generation The Flp-In™ expression system (Invitrogen, cat. no. K6010-01) allows the generation of stable mammalian cell lines into which the gene of interest has been integrated through homologous recombination at a specific genomic location called Flp Recombination Target (FRT) site by means of a Flp recombinase encoded by the pOG44 expression plasmid. The integration of the pcDNA5/FRT expression construct into the Flp-In host cell line genome results in the transcription of the gene of interest. The stably transfected cells become hygromycin-resistant.
One day prior to transfection, 200 000 Flp-In-CHO cells were seeded in Ham F-12 medium (Invitrogen, cat. no. 31765) supplemented with 10% fetal calf serum (FCS; Perbio Science, cat. no. SH30068.03) in a 6-well plate and incubated at 37° C./5% CO2 overnight. Using the FuGENE® 6 transfection reagent (Roche, cat. no. 11988387001), cells were cotransfected with the Flp recombinase expression plasmid pOG44 and a modified plasmid additionally containing the edg-1 gene (accession no. NM_001400) termed as pcDNA5-FRT-TO_nFLAG_DEST-EDG-1 with a 9:1 ratio. To obtain the modified pcDNA5-FRT-TO_nFLAG_DEST plasmid, the Invitrogen plasmid pcDNA5/FRT/TO (Invitrogen, cat. no. V6520-20) was adapted to the Gateway® (Invitrogen) cloning system by inserting a Gateway cassette containing attR recombination sites flanking a ccdB gene and a chloramphenicol-resistance gene (Gateway conversion system, Invitrogen, cat. no. 11828-029). In addition a FLAG tag epitope was added before the 5′ att recombination site to allow recombinant expression of N-terminally FLAG-tagged proteins.
For the transfection of one well, 1.08 μg of pOG44 and 0.12 μg of pcDNA5-FRT-TO_nFLAG_DEST-EDG-1 were mixed to 100 μl of serum-free Ham F-12 medium containing 6 μl of FuGENE® 6 transfection reagent. After 20 min of incubation, the transfection reagent/DNA complex was distributed dropwise on the cells. The cells were incubated for 24 h at 37° C. Then the cells from 3 wells were transferred to a T75 flask (Greiner Cellstar®, cat. no. 658175) containing Ham F-12 medium supplemented with 10% of FCS but without antibiotic and were incubated another 24 h. 48 h after transfection, the medium was replaced by selection medium (Ham F-12 supplemented with 10% of FCS and 300 μg/ml of hygromycin B (Invitrogen, cat. no. 10687-010)). The medium was exchanged every 2 to 3 days until a resistant population of cells had grown. […] After 2 weeks of selection, the cells were transferred into T175 flasks (Greiner Cellstar®, cat. no. 660175) and cultivated for batch production. Cells were harvested from the culture flasks by short treatment (2 to 5 min) with Accutase (PAA, cat. no. L11-007), resuspended in selection medium (see above) and centrifuged at 200×g for 5 min. Cells were resuspended in a mixture of 90% of FCS and 10% of dimethylsulfoxide and stored frozen in liquid nitrogen.
A membrane preparation was obtained by standard methods from the afore-described CHO Flp-ln cell line constitutively overexpressing the human Edg-1 receptor. Briefly, the cryopreserved cells were taken in culture and grown until confluency in T175 cell culture flasks (Becton Dickinson, cat. no. 35 5001). […]

T1 sequence (P21453 whole entry): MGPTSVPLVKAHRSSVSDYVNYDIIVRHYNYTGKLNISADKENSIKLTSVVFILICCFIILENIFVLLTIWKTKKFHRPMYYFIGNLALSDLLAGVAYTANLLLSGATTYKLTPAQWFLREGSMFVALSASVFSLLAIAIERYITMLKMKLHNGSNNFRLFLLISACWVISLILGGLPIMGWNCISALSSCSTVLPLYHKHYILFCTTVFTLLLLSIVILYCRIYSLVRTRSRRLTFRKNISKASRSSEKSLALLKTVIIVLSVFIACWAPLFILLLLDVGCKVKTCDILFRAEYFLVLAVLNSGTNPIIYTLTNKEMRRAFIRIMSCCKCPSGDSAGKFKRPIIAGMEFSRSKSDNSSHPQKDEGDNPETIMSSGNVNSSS

| activation at 10 µM [%] | Structure (SMILES) |
| --- | --- |
| 103 | Cc1cc(-c2nc3cnc(Oc4cccnc4)nc3o2)cc(C)c1O [Example 11, 2,6-dimethyl-4-[5-(pyridin-3-yloxy)-oxazolo[5,4-d]pyrimidin-2-yl]-phenol] |
| 115 | Cc1cc(-c2nc3cnc(Oc4ccccc4F)nc3o2)ccc1O [Example 7, 4-[5-(2-fluoro-phenoxy)-oxazolo[5,4-d]pyrimidin-2-yl]-2-methyl-phenol] |
| 120 | Cc1cc(-c2nc3cnc(Oc4ccccc4F)nc3o2)ccc1S(C)(=O)=O [Example 13, 5-(2-fluorophenoxy)-2-(4-methanesulfonyl-3-methylphenyl)-oxazolo[5,4-d]pyrimidine] |
| 115 | Cc1cc(-c2nc3cnc(Oc4ccccc4F)nc3o2)cc(C)c1O [Example 2, 4-[5-(2-Fluoro-phenoxy)-oxazolo[5,4-d]pyrimidin-2-yl]-2,6-dimethyl-phenol] |
| 112 | Cc1cc(-c2nc3cnc(Oc4cccc(F)c4)nc3o2)cc(C(C)C)c1O [Example 12, 4-[5-(3-fluorophenoxy)-oxazolo[5,4-d]pyrimidin-2-yl]-2-isopropyl-6-methyl-phenol] |
| 69 | Cc1cc(S(C)(=O)=O)ccc1-c1nc2cnc(Oc3ccccc3F)nc2o1 [Example 14, 5-(2-fluorophenoxy)-2-(4-methanesulfonyl-2-methylphenyl)-oxazolo[5,4-d]pyrimidine] |
| 95 | COc1cccc(-c2nc3cnc(Oc4ccccc4F)nc3o2)c1 [Example 3, 5-(2-fluoro-phenoxy)-2-(3-methoxy-phenyl)-oxazolo[5,4-d]pyrimidine] |
| 94 | COc1c(C)cc(-c2nc3cnc(Oc4ccccc4)nc3o2)cc1C [Example 8, 2-(4-methoxy-3,5-dimethyl-phenyl)-5-phenoxy-oxazolo[5,4-d]pyrimidine] |
| 107 | Oc1ccc(-c2nc3cnc(Oc4ccccc4F)nc3o2)cc1C(F)(F)F [Example 10, 4-[5-(2-fluoro-phenoxy)-oxazolo[5,4-d]pyrimidin-2-yl]-2-trifluoromethyl-phenol] |
| 83 | Oc1ccc(-c2nc3cnc(Oc4ccccc4F)nc3o2)cc1 [Example 4, 4-[5-(2-fluoro-phenoxy)-oxazolo[5,4-d]pyrimidin-2-yl]-phenol] |
| 87 | COc1c(C)cc(-c2nc3cnc(Oc4cccnc4)nc3o2)cc1C [Example 9, 2-(4-methoxy-3,5-dimethyl-phenyl)-5-(pyridin-3-yloxy)-oxazolo[5,4-d]pyrimidine] |
| 87 | COc1ccc(-c2nc3cnc(Oc4ccccc4F)nc3o2)cc1C(F)(F)F [Example 6, 5-(2-fluoro-phenoxy)-2-(4-methoxy-3-trifluoromethyl-phenyl)-oxazolo[5,4-d]pyrimidine] |
| 42 | COc1ccc(-c2nc3cnc(Oc4ccccc4F)nc3o2)cc1C [Example 5, 5-(2-fluoro-phenoxy)-2-(4-methoxy-3-methyl-phenyl)-oxazolo[5,4-d]pyrimidine] |
| 102 | COc1c(C)cc(-c2nc3cnc(Oc4ccccc4F)nc3o2)cc1C [Example 1, 5-(2-Fluoro-phenoxy)-2-(4-methoxy-3,5-dimethyl-phenyl)-oxazolo[5,4-d]pyrimidine] |
